From PubChem BioAssay (NCI)
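How tested: cells in 96-well plates exposed to compound for 48 hours at five concentrations. GI50: concentration for 50% inhibition of growth. At the TGI there is no net growth.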

Columns and labels:
Assay in all cases: NCI-60 cell line screen, 48 h
[1] = test system: ACHN renal
[2] = test system: CAKI-1 renal
[3] = test system: PC-3 prostate
[4] = test system: HL-60(TB) leukemia
[5] = test system: NCI-H522 lung
[6] = test system: SF-268 CNS
[7] = test system: SF-539 CNS
[8] = test system: U251 CNS
[9] = test system: HOP-92 NSCLC
[10] = test system: OVCAR-3 ovarian
[11] = test system: SK-OV-3 ovarian
[12] = test system: NCI-H226 lung
[13] = test system: RPMI-8226 leukemia
[14] = test system: K-562 leukemia
[15] = test system: EKVX NSCLC
[16] = test system: DU-145 prostate
[17] = test system: SR leukemia
[18] = test system: UACC-62 melanoma
[19] = test system: COLO 205 colon
[20] = test system: SK-MEL-28 melanoma
[21] = test system: NCI/ADR-RES ovarian
[22] = test system: A498 renal
[23] = test system: MDA-MB-435
[24] = test system: OVCAR-5 ovarian
[25] = test system: KM12 colon
[26] = test system: RXF 393 renal
[27] = test system: MCF7 breast
[28] = test system: MOLT-4 leukemia
[29] = test system: SK-MEL-2 melanoma
[30] = test system: HOP-62 NSCLC
[31] = test system: HCT-15 colon
[32] = test system: LOX IMVI melanoma
[33] = test system: TK-10 renal
[34] = test system: M14 melanoma
[35] = test system: BT-549 breast
[36] = test system: IGROV1 ovarian
[37] = test system: NCI-H460 lung
[38] = test system: HS 578T breast
[39] = test system: SNB-75 CNS
[40] = test system: UACC-257 melanoma
[41] = test system: UO-31 renal
[42] = test system: HT29 colon
[43] = test system: NCI-H23 lung
[44] = test system: OVCAR-8 ovarian
[45] = test system: SNB-19 CNS
[46] = test system: 786-0 renal
[47] = test system: SW-620 colon
[48] = test system: MDA-MB-231 breast
[49] = test system: SF-295 CNS
[50] = test system: HCT-116 colon
[51] = test system: SN12C renal
[52] = test system: A549 NSCLC
[53] = test system: SK-MEL-5 melanoma

Compound: COc1cc(CNc2nc3cc(N)cc(N)c3nc2-c2ccccc2)cc(OC)c1OC
- GI50 [1]: 5.33 µM
- TGI [1]: 11.2 µM
- GI50 [2]: 1.9 µM
- TGI [2]: 8.76 µM
- GI50 [3]: 2.18 µM
- TGI [3]: > 50 µM
- GI50 [4]: 1.25 µM
- TGI [4]: > 50 µM
- GI50 [5]: > 50 µM
- TGI [5]: > 50 µM
- GI50 [6]: 2.93 µM
- TGI [6]: 14 µM
- GI50 [7]: 1.34 µM
- TGI [7]: 8.01 µM
- GI50 [8]: 1.73 µM
- TGI [8]: 6.25 µM
- GI50 [9]: 1.21 µM
- TGI [9]: 3.12 µM
- GI50 [10]: 1.15 µM
- TGI [10]: 3.42 µM
- GI50 [11]: 5.36 µM
- TGI [11]: 13.9 µM
- GI50 [12]: 9.96 µM
- TGI [12]: 22.4 µM
- GI50 [13]: 0.697 µM
- TGI [13]: 3 µM
- GI50 [14]: 1.76 µM
- TGI [14]: > 50 µM
- GI50 [15]: 1.94 µM
- TGI [15]: 8.31 µM
- GI50 [16]: 5.24 µM
- TGI [16]: 20 µM
- GI50 [17]: 0.897 µM
- TGI [17]: > 50 µM
- GI50 [18]: 8.09 µM
- TGI [18]: 15.5 µM
- GI50 [19]: 3.77 µM
- TGI [19]: > 50 µM
- GI50 [20]: 8.53 µM
- TGI [20]: 17.6 µM
- GI50 [21]: 10.2 µM
- TGI [21]: 21.8 µM
- GI50 [22]: 6.34 µM
- TGI [22]: 14.7 µM
- GI50 [23]: 0.227 µM
- TGI [23]: 0.907 µM
- GI50 [24]: 21.5 µM
- TGI [24]: > 50 µM
- GI50 [25]: 0.478 µM
- TGI [25]: 10.2 µM
- GI50 [26]: 7.47 µM
- TGI [26]: 19.9 µM
- GI50 [27]: 1.55 µM
- TGI [27]: > 50 µM
- GI50 [28]: 12.4 µM
- TGI [28]: > 50 µM
- GI50 [29]: 16.1 µM
- TGI [29]: > 50 µM
- GI50 [30]: 17.1 µM
- TGI [30]: > 50 µM
- GI50 [31]: 3.27 µM
- TGI [31]: 13.9 µM
- GI50 [32]: 3.19 µM
- TGI [32]: 10.4 µM
- GI50 [33]: 6.25 µM
- TGI [33]: 17.9 µM
- GI50 [34]: 9.52 µM
- TGI [34]: 18.2 µM
- GI50 [35]: 3.84 µM
- TGI [35]: 11.2 µM
- GI50 [36]: 9.11 µM
- TGI [36]: > 50 µM
- GI50 [37]: 1.53 µM
- TGI [37]: > 50 µM
- GI50 [38]: 3 µM
- TGI [38]: 33.4 µM
- GI50 [39]: 0.813 µM
- TGI [39]: 14.6 µM
- GI50 [40]: 3.45 µM
- TGI [40]: 10.8 µM
- GI50 [41]: 11.1 µM
- TGI [41]: > 50 µM
- GI50 [42]: 8.63 µM
- TGI [42]: 19.5 µM
- GI50 [43]: 8.64 µM
- TGI [43]: 17 µM
- GI50 [44]: 7 µM
- TGI [44]: 14.8 µM
- GI50 [45]: 7.22 µM
- TGI [45]: 20.8 µM
- GI50 [46]: 15.6 µM
- TGI [46]: > 50 µM
- GI50 [47]: 1.54 µM
- TGI [47]: 4.51 µM
- GI50 [48]: 7.3 µM
- TGI [48]: 15.2 µM
- GI50 [49]: 1.67 µM
- TGI [49]: 5.62 µM
- GI50 [50]: 9.84 µM
- TGI [50]: 19.1 µM
- GI50 [51]: 8.66 µM
- TGI [51]: 16.7 µM
- GI50 [52]: 4.28 µM
- TGI [52]: 33.1 µM
- GI50 [53]: 0.721 µM
- TGI [53]: 7.79 µM
